In patent US11331298B2, “Powder solid dispersions comprising quercetin, process for their preparation and formulations thereof” (INDENA S.P.A., priority 2017, dated 2022):

Tests used:
[1] = Solubility studies in simulated gastro-intestinal fluids; assay type: physicochemical; conditions: excess analyte, magnetic stirring 2 hours, HPLC
From the text: Quercetin dihydrate, quercetin powder solid dispersion obtained in Example 1 and a mechanical (physical) mixture of the component of the said solid dispersion were subjected to comparative solubility experiments, in the presence of high excess of analyte, using the following simulated gastro-intestinal fluids: • fasted state simulated gastric fluid; • fasted state simulated intestinal fluid; • fed state simulated intestinal fluid.
Equivalent amounts of quercetin were used during the experiments. Quercetin dihydrate, quercetin powder solid dispersion of Example 1 and the mechanical (physical) mixture were kept under magnetic stirring for 2 hours. The supernatant was filtered and the quercetin concentration was calculated by HPLC analysis.

[2] = Single dose randomized, crossover pharmacokinetic study in healthy volunteers; assay type: in vivo, human; conditions: fasting, single oral dose, 500 mg film-coated tablets, mean
Protocol: A single dose randomized, crossover pharmacokinetic study in healthy volunteers under fasting conditions was performed using film-coated tablets containing 500 mg of (unformulated) quercetin dihydrate, 500 mg of quercetin (40%) powder solid dispersion (corresponding to 200 mg of quercetin dihydrate) and 250 mg of quercetin (40%) powder solid dispersion (corresponding to 100 mg of quercetin dihydrate).

Quercetin concentration (solubility) ([1]; Fasted state simulated gastric fluid (pH 1.6)): <LOD
Quercetin concentration (solubility) ([1]; Fasted state simulated intestinal fluid (pH 6.5)): 7.5 µg/mL
Quercetin concentration (solubility) ([1]; Fed state simulated intestinal fluid (pH 5.0)): 19.1 µg/mL
Cmax [2]: 10.93 ng/mL
AUC(0-inf) ([2]; human, in vivo): 90.1 ng·h/mL
Compound: O=c1c(O)c(-c2ccc(O)c(O)c2)oc2cc(O)cc(O)c12 [Quercetin dihydrate, 2-(3,4-Dihydroxyphenyl)-3,5,7-trihydroxy-4H-chromen-4-one]
